The supplement of paper PMC10307832

How the values were obtained:
Experiment in all cases: relative viability (nuclei count vs DMSO), 5 days (fraction); higher = more cells survive
201T = tested on: 201T
In short: (§1)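 Medians of duplicate plates are given as relative viability. That measure is the nuclei count in treated wells divided by the count in vehicle wells. Counts were taken on 4× images of lung cancer cell lines in 1536-well plates, 5 days after pin-tool dosing the day after seeding with one drug alone or a fixed anchor-drug dose plus five library-drug doses (not always all listed) in √10 steps.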

A-427 = tested on: A-427
In short: as §1

COR-L23 = tested on: COR-L23
In short: as §1

ChaGo-K-1 = tested on: ChaGo-K-1
In short: as §1

HARA = tested on: HARA
In short: as §1

HCC-15 = tested on: HCC-15
In short: as §1

HCC-366 = tested on: HCC-366
In short: as §1

HCC-78 = tested on: HCC-78
In short: as §1

LCLC-103H = tested on: LCLC-103H
In short: as §1

LCLC-97TM1 = tested on: LCLC-97TM1
In short: as §1

LOU-NH91 = tested on: LOU-NH91
In short: as §1

NCI-H1650 = tested on: NCI-H1650
In short: as §1

NCI-H1734 = tested on: NCI-H1734
In short: as §1

NCI-H1993 = tested on: NCI-H1993
In short: as §1

NCI-H2009 = tested on: NCI-H2009
In short: as §1

NCI-H2023 = tested on: NCI-H2023
In short: as §1

NCI-H2126 = tested on: NCI-H2126
In short: as §1

NCI-H441 = tested on: NCI-H441
In short: as §1

NCI-H460 = tested on: NCI-H460
In short: as §1

NCI-H650 = tested on: NCI-H650
In short: as §1

RERF-LC-KJ = tested on: RERF-LC-KJ
In short: as §1

SW 1573 = tested on: SW 1573
In short: as §1

## Cc1cnc(-c2cnc(NCCNc3ccc(C#N)cn3)nc2-c2ccc(Cl)cc2Cl)[nH]1 + Cc1nc(Nc2ncc(C(=O)Nc3c(C)cccc3Cl)s2)cc(N2CCN(CCO)CC2)n1 [Dasatinib] (partner 0.075 µM)
201T; first compound 0.08 µM
  relative viability: 0.621
201T; first compound 0.8 µM
  relative viability: 0.591
201T; first compound 2.53 µM
  relative viability: 0.571
A-427; first compound 0.08 µM
  relative viability: 0.747
A-427; first compound 0.253 µM
  relative viability: 0.589
A-427; first compound 0.8 µM
  relative viability: 0.738
A-427; first compound 2.53 µM
  relative viability: 0.682
COR-L23; first compound 0.253 µM
  relative viability: 0.419
COR-L23; first compound 0.8 µM
  relative viability: 0.51
COR-L23; first compound 2.53 µM
  relative viability: 0.5
ChaGo-K-1; first compound 0.08 µM
  relative viability: 0.607
ChaGo-K-1; first compound 0.253 µM
  relative viability: 0.462
ChaGo-K-1; first compound 0.8 µM
  relative viability: 0.512
ChaGo-K-1; first compound 2.53 µM
  relative viability: 0.515
HARA; first compound 0.08 µM
  relative viability: 0.223
HARA; first compound 0.253 µM
  relative viability: 0.259
HARA; first compound 0.8 µM
  relative viability: 0.343
HARA; first compound 2.53 µM
  relative viability: 0.244
HCC-15; first compound 0.08 µM
  relative viability: 0.687
HCC-15; first compound 0.253 µM
  relative viability: 0.509
HCC-15; first compound 0.8 µM
  relative viability: 0.598
HCC-15; first compound 2.53 µM
  relative viability: 0.625
HCC-366; first compound 0.08 µM
  relative viability: 0.67
HCC-366; first compound 0.253 µM
  relative viability: 0.545
HCC-366; first compound 0.8 µM
  relative viability: 0.618
HCC-366; first compound 2.53 µM
  relative viability: 0.595
HCC-78; first compound 0.08 µM
  relative viability: 0.434
HCC-78; first compound 0.253 µM
  relative viability: 0.364
HCC-78; first compound 0.8 µM
  relative viability: 0.41
HCC-78; first compound 2.53 µM
  relative viability: 0.371
LCLC-103H; first compound 0.08 µM
  relative viability: 0.404
LCLC-103H; first compound 0.253 µM
  relative viability: 0.442
LCLC-103H; first compound 0.8 µM
  relative viability: 0.434
LCLC-103H; first compound 2.53 µM
  relative viability: 0.433
LCLC-97TM1; first compound 0.08 µM
  relative viability: 0.796
LCLC-97TM1; first compound 0.8 µM
  relative viability: 0.887
LCLC-97TM1; first compound 2.53 µM
  relative viability: 0.741
LOU-NH91; first compound 0.08 µM
  relative viability: 0.562
LOU-NH91; first compound 0.253 µM
  relative viability: 0.558
LOU-NH91; first compound 0.8 µM
  relative viability: 0.55
LOU-NH91; first compound 2.53 µM
  relative viability: 0.514
NCI-H1650; first compound 0.08 µM
  relative viability: 0.31
NCI-H1650; first compound 0.253 µM
  relative viability: 0.345
NCI-H1650; first compound 0.8 µM
  relative viability: 0.295
NCI-H1650; first compound 2.53 µM
  relative viability: 0.312
NCI-H1734; first compound 0.08 µM
  relative viability: 0.461
NCI-H1734; first compound 0.253 µM
  relative viability: 0.417
NCI-H1734; first compound 0.8 µM
  relative viability: 0.467
NCI-H1734; first compound 2.53 µM
  relative viability: 0.415
NCI-H1993; first compound 0.08 µM
  relative viability: 0.58
NCI-H1993; first compound 0.253 µM
  relative viability: 0.568
NCI-H1993; first compound 0.8 µM
  relative viability: 0.499
NCI-H1993; first compound 2.53 µM
  relative viability: 0.996
NCI-H2009; first compound 0.08 µM
  relative viability: 0.322
NCI-H2009; first compound 0.253 µM
  relative viability: 0.284
NCI-H2009; first compound 0.8 µM
  relative viability: 0.282
NCI-H2009; first compound 2.53 µM
  relative viability: 0.231
NCI-H2023; first compound 0.08 µM
  relative viability: 0.811
NCI-H2023; first compound 0.253 µM
  relative viability: 0.532
NCI-H2023; first compound 0.8 µM
  relative viability: 0.599
NCI-H2023; first compound 2.53 µM
  relative viability: 0.636
NCI-H2126; first compound 0.08 µM
  relative viability: 0.686
NCI-H2126; first compound 0.253 µM
  relative viability: 0.54
NCI-H2126; first compound 0.8 µM
  relative viability: 0.604
NCI-H2126; first compound 2.53 µM
  relative viability: 0.529
NCI-H441; first compound 0.08 µM
  relative viability: 0.672
NCI-H441; first compound 0.253 µM
  relative viability: 0.578
NCI-H441; first compound 0.8 µM
  relative viability: 0.385
NCI-H441; first compound 2.53 µM
  relative viability: 0.403
NCI-H460; first compound 0.08 µM
  relative viability: 0.543
NCI-H460; first compound 0.253 µM
  relative viability: 0.404
NCI-H460; first compound 0.8 µM
  relative viability: 0.557
NCI-H460; first compound 2.53 µM
  relative viability: 0.454
NCI-H650; first compound 0.08 µM
  relative viability: 0.497
NCI-H650; first compound 0.253 µM
  relative viability: 0.462
NCI-H650; first compound 0.8 µM
  relative viability: 0.511
NCI-H650; first compound 2.53 µM
  relative viability: 0.495
RERF-LC-KJ; first compound 0.08 µM
  relative viability: 0.9
RERF-LC-KJ; first compound 0.253 µM
  relative viability: 0.765
RERF-LC-KJ; first compound 0.8 µM
  relative viability: 0.796
RERF-LC-KJ; first compound 2.53 µM
  relative viability: 0.752
SW 1573; first compound 0.08 µM
  relative viability: 0.687
SW 1573; first compound 0.253 µM
  relative viability: 0.395
SW 1573; first compound 0.8 µM
  relative viability: 0.493
SW 1573; first compound 2.53 µM
  relative viability: 0.168
